Reference: US20130005696A1, “BUFADIENOLIDE DERIVATIVES, PREPARING PROCESS THEREOF, COMPOSITION COMPRISING THE SAME AND THE USE THEREOF” (priority 2011, published 2013)
Where two headings read alike, the source gives them in different places.

Assays:
[1] = system: A-549 human non-small cell lung carcinoma cell line; test: In vitro antitumor activity assay (SRB), A549; assay type: cell-based
Description: (§1) HeLa human cervical carcinoma cell line, A-549 human non-small cell lung carcinoma cell line, NCI-H2228 human lung carcinoma cell line, NCI-H460 human lung carcinoma cell line, MDA-MB-231 human breast carcinoma cell line, MCF-7 human breast carcinoma cell line, Bel-7402 human hepatic carcinoma cell line, Hep3B human hepatic carcinoma cell line, QGY-7703 human hepatic carcinoma cell line, MV-4-11 human leukemic cell line, DAUDI human leukemic cell line, Jurkat human leukemic cell line, A498 renal carcinoma cell line, LoVo human colon carcinoma cell line, HCT1116 human colon carcinoma cell line, A431 human skin carcinoma cell line, PANC-1 human pancreatic carcinoma cell line, U87-MG human brain carcinoma cell line, SH-SY5Y human brain carcinoma cell line, RPMI-8226 human bone carcinoma cell line, HT1080 human fibrosarcoma cell line, PC-3 human prostatic carcinoma cell line, AGS human gastric adenocarcinoma cell line, and BGC-823 human gastric adenocarcinoma cell line were purchased from the Cell Bank of the Chinese Academy of Sciences.
(§2) The positive control is bufalin (formulated according to the common method), its purity is 98% or more by HPLC-UV and its structure is identified by NMR. The compounds to be tested and the positive control were diluted with normal saline with a concentration gradient of 10^−4 M, 10^−5 M, 10^−6 M, 10^−7 M and 10^−8 M.
(§3) According to cell growth rate, tumor cells in the log phase of growth were seeded into 96-well culture plates at 100 μL per well, and allowed to attach for 24 hours, followed by addition of a test compound or positive control at 10 μL per well. For each concentration, the test was carried out in triplicate wells. Solvent control wells with addition of normal saline into cell culture and a blank well containing only cell culture medium but without cells for zeroing were also included. The tumor cells were incubated for 72 hours at 37° C. under 5% CO2, and then the culture medium (RPMI-1640) was removed. The cells were fixed with 10% cool TCA by incubating for 1 h at 4° C., washed with distilled water for 5 times, and dried naturally in the air. A solution of SRB (Sigma) (4 mg/mL) in 1% glacial acetic acid was added at 100 μL per well, and the cells were stained for 15 minutes at room temperature, and the supernatant was discarded. The plates were washed for 5 times with 1% acetic acid, and dried in air. Finally, Tris solution was added at 150 μL per well, and the absorbance (A) was measured at a wavelength of 515 nm using a microplate reader. The growth inhibition on tumor cell proliferation was calculated according to the following equation:
(§4) Growth Inhibition (%)=[(Absorbance of negative control−Absorbance of blank)−(Absorbance of sample−Absorbance of blank)]/(Absorbance of negative control−Absorbance of blank)×100%
(§5) Drug concentration: 10 μM, 1 μM, 0.1 μM, 10 nM, 1 nM, 0.1 nM.
(§6) IC50 was fitted by GraphPad Prism 4.

[2] = system: PC-3 human prostatic carcinoma cell line; test: In vitro antitumor activity assay (SRB), PC-3; assay type: cell-based
Description: as §1, §2, §3, §4, §5, §6

[3] = system: MV-4-11 human leukemic cell line; test: In vitro antitumor activity assay (SRB), MV-4-11; assay type: cell-based; conditions: MV-4-11, 72 h, Table 3
Description: as §1, §2
(§7) According to cell growth rate, tumor cells in the log phase of growth were seeded into 96-well culture plates at 100 μL per well, and allowed to attach for 24 hours, followed by addition of a test compound or positive control at 10 μL per well. For each concentration, the test was carried out in triplicate wells. […] Finally, Tris solution was added at 150 μL per well, and the absorbance (A) was measured at a wavelength of 515 nm using a microplate reader. The growth inhibition on tumor cell proliferation was calculated according to the following equation:
(§8) Growth Inhibition (%)=[(Absorbance of negative control−Absorbance of blank)−(Absorbance of sample−Absorbance of blank)]/(Absorbance of negative control−Absorbance of blank)×100% […]

[4] = system: Jurkat human leukemic cell line; test: In vitro antitumor activity assay (SRB), Jurkat; assay type: cell-based; conditions: 72 h, Table 3
Description: as §1, §2, §7, §8

[5] = system: DAUDI human leukemic cell line; test: In vitro antitumor activity assay (SRB), Daudi; assay type: cell-based; conditions: 72 h, Table 3
Description: as §1, §2, §7, §8

[6] = system: HT1080 human fibrosarcoma cell line; test: In vitro antitumor activity assay (SRB), HT1080; assay type: cell-based; conditions: HT1080, 72 h, Table 3
Description: as §1, §2, §7, §8

[7] = system: NCI-H460 human lung carcinoma cell line; test: In vitro antitumor activity assay (SRB), NCI-H460; assay type: cell-based; conditions: NCI-H460, 72 h, Table 3
Description: as §1, §2, §7, §8

[8] = system: NCI-H2228 human lung carcinoma cell line; test: In vitro antitumor activity assay (SRB), NCI-H2228; assay type: cell-based; conditions: NCI-H2228, 72 h, Table 3
Description: as §1, §2, §7, §8

[9] = system: AGS human gastric adenocarcinoma cell line; test: In vitro antitumor activity assay (SRB), AGS; assay type: cell-based; conditions: 72 h, Table 3
Description: as §1, §2, §7, §8

[10] = system: BGC-823 human gastric adenocarcinoma cell line; test: In vitro antitumor activity assay (SRB), BGC-823; assay type: cell-based; conditions: BGC-823, 72 h, Table 3
Description: as §1, §2, §7, §8

[11] = system: HepG2 human-derived tumor cell line; test: In vitro antitumor activity assay (SRB), HepG2; assay type: cell-based; conditions: HepG2, 72 h, Table 3
[12] = system: QGY-7703 human hepatic carcinoma cell line; test: In vitro antitumor activity assay (SRB), QGY7703; assay type: cell-based; conditions: QGY7703, 72 h, Table 3
Description: as §1, §2, §7, §8

[13] = system: A498 renal carcinoma cell line; test: In vitro antitumor activity assay (SRB), A498; assay type: cell-based, human; conditions: A498, 72 h, Table 3
Description: as §1, §2, §7, §8

[14] = system: PANC-1 human pancreatic carcinoma cell line; test: In vitro antitumor activity assay (SRB), PANC-1; assay type: cell-based; conditions: PANC-1, 72 h, Table 3
Description: as §1, §2, §7, §8

[15] = system: RPMI-8226 human bone carcinoma cell line; test: In vitro antitumor activity assay (SRB), RPMI8226; assay type: cell-based; conditions: RPMI8226, 72 h, Table 3
Description: as §1, §2, §7, §8

[16] = system: U87-MG human brain carcinoma cell line; test: In vitro antitumor activity assay (SRB), U87-MG; assay type: cell-based; conditions: 72 h, Table 3
Description: as §1, §2, §7, §8

[17] = In vivo acute toxicity assay in mouse; conditions: for LD50: in vivo, ip
Description: Sample Name: bufalin, II1E-01.HCl
35.8 mg of II1E-01.HCl was weighted, added with 1.78 mL of anhydrous ethanol, and dissolved completely under ultrasonication. 16.02 mL of 5% glucose injection was added and agitated homogeneously. The solution was filtered with a 0.2 μm filtration membrane to obtain a stock solution with a concentration of 2 mg/mL, wherein the content of ethanol is 10%. The highest dosage is 20 mg/kg, calculated based on the administration volume of 0.1 mL/10 g body weight of mouse.

## C[C@]12CC[C@H](OC(=O)NC3CCNCC3)C[C@H]1CC[C@@H]1[C@@H]2CC[C@]2(C)[C@@H](c3ccc(=O)oc3)CC[C@]12O.Cl [II1E-01•HCl]
[1]; A549, 72 h, Table 3, read-out: IC50 (72 h), A549
  IC50: 0.4 ± 0.22 nM
[2]; PC-3, 72 h, Table 3, read-out: IC50 (72 h), PC-3
  IC50: 0.3 ± 0.08 nM
[3]
  IC50: 0.64 ± 0.11 nM
[4]
  IC50: 0.67 ± 0.1 nM
[5]
  IC50: 2.34 ± 0.22 nM
[6]
  IC50: 2.34 ± 0.1 nM
[7]
  IC50: 0.67 ± 0.03 nM
[8]
  IC50: 1.62 ± 0.5 nM
[9]
  IC50: 9.35 ± 0.53 nM
[10]
  IC50: 0.56 ± 0.07 nM
[11]
  IC50: 0.33 ± 0.02 nM
[12]
  IC50: 1.72 ± 0.08 nM
[13]
  IC50: 0.37 ± 0.05 nM
[14]
  IC50: 0.57 ± 0.06 nM
[15]
  IC50: 1.71 ± 0.03 nM
[16]
  IC50: 1.98 ± 0.3 nM
[17]; intraperitoneal, female mouse
  LD50 of intraperitoneal administration, female mouse: about 18.21 mg/kg
[17]; intraperitoneal, male mouse
  LD50 of intraperitoneal administration, male mouse: about 14.75 mg/kg
[17]; intravenous, female mouse
  LD50 of intravenous administration, female mouse: about 16.51 mg/kg
[17]; intravenous, male mouse
  LD50 of intravenous administration, male mouse: about 13.60 mg/kg
[17]; mouse
  in vivo acute toxicity in mouse compared with bufalin, in words: lower in vivo acute toxicity in mouse than bufalin

## C[C@]12CC[C@H](O)C[C@H]1CC[C@@H]1[C@@H]2CC[C@]2(C)[C@@H](c3ccc(=O)oc3)CC[C@]12O [bufalin, reference compound]
[1]; Homo sapiens, A549, 72 h, Table 3, read-out: IC50 (72 h), A549
  IC50: 8.74 ± 2.52 nM
[1]; Homo sapiens, A549, Table 2, read-out: IC50, inhibition of cell proliferation, A549
  IC50: 6.53 ± 1.64 nM
[2]; Homo sapiens, Prostatic carcinoma cell, PC-3, 72 h, Table 3, read-out: IC50 (72 h), PC-3
  IC50: 5 ± 0.45 nM
[2]; Homo sapiens, Prostatic carcinoma cell, PC-3, Table 2, read-out: IC50, inhibition of cell proliferation, PC-3
  IC50: 17.3 ± 2.76 nM
[3]; Homo sapiens, MV4-11
  IC50: 6.26 ± 2.22 nM
[4]; Homo sapiens
  IC50: 8.79 ± 2.48 nM
[5]; Homo sapiens
  IC50: 12.6 ± 0.76 nM
[6]; Homo sapiens, HT-1080
  IC50: 11.3 ± 0.38 nM
[7]; Homo sapiens
  IC50: 6.89 ± 0.87 nM
[8]; Homo sapiens
  IC50: 16.1 ± 2.51 nM
[9]; Homo sapiens
  IC50: 51.8 ± 1.34 nM
[10]; Homo sapiens
  IC50: 9.06 ± 0.37 nM
[11]; Homo sapiens
  IC50: 6.02 ± 0.71 nM
[12]; Homo sapiens, QGY-7703
  IC50: 12.8 ± 0.47 nM
[13]; Homo sapiens
  IC50: 6.41 ± 0.75 nM
[14]; Homo sapiens
  IC50: 9.88 ± 0.27 nM
[15]; Homo sapiens, RPMI-8226
  IC50: 13.5 ± 0.82 nM
[16]; Homo sapiens, U-87 MG
  IC50: 13 ± 1.74 nM
[17]; intraperitoneal, female mouse, read-out: LD50 of intraperitoneal administration, female mouse
  LD50: ~2.8 mg/kg
[17]; intraperitoneal, male mouse, read-out: LD50 of intraperitoneal administration, male mouse
  LD50: ~2.4 mg/kg
